From the supplement of paper PMC10307832

Tests used:
Test in all cases: relative viability (nuclei count vs DMSO), 5 days (fraction); higher = more cells survive
[1] = compound: C1=CC(=CC=C1C2=CC(=C(S2)NC(=O)N)C(=O)N)F [TPCA-1] + C[C@]1(O)C[C@@H](c2nc(-c3ccc4ccc(-c5ccccc5)nc4c3)c3c(N)nccn32)C1 [Linsitinib] (partner 1 µM)
How it was run: (§1)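 For relative viability, nuclei counts in treated wells were divided by those in vehicle wells. Lung cancer cell lines had been pin-tool dosed in 1536-well plates the day after seeding and cultured for 5 days, then fixed and stained in one step (final 0.05% Triton X-100, 1% formaldehyde, 1 ug/ml Hoechst) and imaged at 4×. Doses were one drug alone or a fixed anchor-drug dose plus five library-drug doses (not always all listed) in √10 steps, and values are duplicate-plate medians.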

[2] = compound: C1=CC(=CC=C1C2=CC(=C(S2)NC(=O)N)C(=O)N)F [TPCA-1] + CS(=O)(=O)N1CCN(Cc2cc3nc(-c4cccc5[nH]ncc45)nc(N4CCOCC4)c3s2)CC1 [Pictilisib] (partner 1 µM)
How it was run: as §1

[3] = compound: C[C@]12O[C@H](C[C@]1(O)CO)n1c3ccccc3c3c4c(c5c6ccccc6n2c5c31)CNC4=O [Lestaurtinib] + Nc1nc2[nH]cc(CCc3ccc(C(=O)N[C@@H](CCC(=O)O)C(=O)O)cc3)c2c(=O)[nH]1 [Pemetrexed] (partner 0.2 µM)
How it was run: as §1

[4] = compound: C[C@]12O[C@H](C[C@]1(O)CO)n1c3ccccc3c3c4c(c5c6ccccc6n2c5c31)CNC4=O [Lestaurtinib] + CC(=O)c1c(C)c2cnc(Nc3ccc(N4CCNCC4)cn3)nc2n(C2CCCC2)c1=O [Palbociclib] (partner 0.5 µM)
How it was run: as §1

| Cell Line | relative viability ([1]; first compound 0.04 µM) | relative viability ([1]; first compound 0.1265 µM) | relative viability ([1]; first compound 0.4 µM) | relative viability ([1]; first compound 1.265 µM) | relative viability ([1]; first compound 4 µM) | relative viability ([2]; first compound 0.04 µM) | relative viability ([2]; first compound 0.1265 µM) | relative viability ([2]; first compound 0.4 µM) | relative viability ([2]; first compound 1.265 µM) | relative viability ([2]; first compound 4 µM) | relative viability ([3]; first compound 0.005 µM) | relative viability ([3]; first compound 0.01581 µM) | relative viability ([3]; first compound 0.05 µM) | relative viability ([3]; first compound 0.1581 µM) | relative viability ([3]; first compound 0.5 µM) | relative viability ([4]; first compound 0.005 µM) | relative viability ([4]; first compound 0.01581 µM) | relative viability ([4]; first compound 0.05 µM) | relative viability ([4]; first compound 0.1581 µM) | relative viability ([4]; first compound 0.5 µM) |
| --- | --- | --- | --- | --- | --- | --- | --- | --- | --- | --- | --- | --- | --- | --- | --- | --- | --- | --- | --- | --- |
| NCI-H1975 | 0.93 | 0.916 | 0.971 | 0.918 | 0.946 | 0.278 | 0.259 | 0.264 | 0.233 | 0.16 | 0.298 | 0.295 | 0.292 | 0.281 | 0.218 | 0.617 | 0.632 | 0.406 | 0.347 | 0.25 |
| NCI-H358 | 0.902 | 0.557 | 0.691 | 0.487 | 0.339 | 0.309 | 0.272 | 0.349 | 0.335 | 0.236 | 0.177 | 0.164 | 0.174 | 0.136 | 0.158 | 0.132 | 0.131 | 0.14 | 0.111 | 0.108 |
| PC-3 [JPC-3] | 0.968 | 0.875 | 0.946 | 0.9 | 0.937 | 0.8 | 0.714 | 0.81 | 0.746 | 0.612 | 0.747 | 1.5 | 0.918 | 0.94 | 0.613 | 0.531 | 0.611 | 0.557 | 0.575 | 0.544 |
| NCI-H1792 | 0.574 | 0.467 | 0.561 | 0.47 | 0.283 | 0.343 | 0.318 | 0.252 | 0.264 | 0.177 | 0.748 | 1.15 | 0.257 | 0.371 | 0.31 | 0.976 | 0.734 | 0.491 | 0.768 | 0.366 |
| RERF-LC-KJ | 1.02 | 0.82 | 0.857 | 0.896 | 0.905 | 0.533 | 0.493 | 0.561 | 0.44 | 0.466 | 0.482 | 0.496 | 0.417 | 0.455 | 0.351 | 1.15 | 1.15 | 0.845 | 0.87 | 0.565 |
| NCI-H322M | 1.02 | 0.834 | 0.952 | 0.803 | 0.607 | 0.587 | 0.494 | 0.529 | 0.532 | 0.464 | 0.599 | 0.606 | – | 0.592 | 0.445 | 0.473 | 0.497 | – | 0.515 | 0.519 |
| COR-L 105 | 0.959 | 1.03 | 0.801 | 0.862 | 0.781 | 0.475 | 0.364 | 0.463 | 0.306 | 0.248 | 1.06 | 1.19 | 1.14 | 0.743 | 0.631 | 0.434 | 0.425 | 0.376 | 0.419 | 0.348 |
| NCI-H1993 | 0.711 | – | 0.748 | 0.686 | 0.622 | 0.883 | – | 0.939 | 0.911 | 0.723 | 0.581 | 0.657 | 0.644 | 0.411 | 0.497 | 0.689 | 0.27 | 0.717 | 0.569 | 0.411 |
